“Also recorded” adds a separate entry of the source.
Experiments:
[1] = test system: MDSCs co-cultured with T cells; assay: MDSC immunosuppression of T cell proliferation (Cell Trace Violet) and IFNγ release/production in co-culture; assay type: cell-based, mouse; settings: for T cell proliferation with pretreated splenic MDSCs: FIG. 3F; for IFNγ release / production by T cells with modulated MDSCs: FIG. 3G, FIG. 8B
Experimental: Tlhe myeloid cells, which were stimulated to imlmuno, suppressive MDSCs using GM/G-CSF, were divided into 3 treatment groups: (i) Treatment±250 uM L-fuc prior, duri ng, and after GM/G-CSF stimulation. Treatment±250 uM L-fuc during and after GM/G-CSF stimulation. (ii) Treatment±250 uM L-fuc only after GM/G-CSF stimulation. Greiss assay timepoints reier to hours after initial dose of L-fuc regardless of when cells were treated, L-fuc abrogated their ability to glenerate NO. […] We subsequently co-cultured the modulated MDSCs wilh T cells, which were then activated or not with CD3/CD28 beads and measured for IFNψ production. *. p •<0.05

SW1 tumors = assay: Immunodepletion mouse model (CD4+ or CD8+ T cell depletion), SW1; assay type: in vivo, C3H/HeN mice
From the text: Total TILs were gated first to single cells (based on forward scatter height vs width, followed by side scatter height vs. width). Live cells were gated from the Zombie negative population from the population above. TILs were gated based on splenocyte size from a control spleen. Individual immune subpopulations were sub-gated from the total TIL population using the following staining criteria: CD3+ for CD3+ T cells; CD3+/CD4+/CD8− for CD4+T cells; CD3+/CD4−/CD8+ for CD8+ T cells, CD11c+/CD11b+ for DCs; either NK1.1 (for C57/BL6 mice) or DX5 (for C3H/HeJ) for NK cells; CD11b+/GR1+ for MDSC-like cells; and F4/80+ for macrophages. Single-cell suspensions from tumor and spleen tissue were stained with Live/Dead Zombie NIR (Biolegend, (San Diego, CA)) at 1:1,000 in PBS for 20 min. Cell suspensions were spun down and stained with the following with antibodies at 0.5 μg/ml per antibody: APC anti-mouse CD3, Pacific Blue anti-mouse CD4, BV785 anti-mouse CD8, PerCP anti-mouse CD25, FITC anti-mouse F4/80, PeCy7 anti-mouse CD11c, PE anti-mouse NK1.1 or PE anti-mouse DX5, and PerCP-Cy5.5 anti-mouse CD11 b. After staining, the cells were washed and fixed (2% formaldehyde), followed by another wash and flow cytometric analysis. The compensation controls were prepared using 0.5 μg/mL of each antibody with UltraComp eBeads, (ThermoFisher Scientific (Waltham, MA)). All samples were subject to flow cytometric profiling using a LSR Flow Cytometer (BD Biosciences (San Jose, CA)) and analysis as indicated using FlowJo software (BD Biosciences (San Jose, CA)).
All animals were housed at the Vincent A. Stabile Research building animal facility at H. Lee Moffitt Cancer Center & Research Institute, which is fully accredited by the Association for Assessment and Accreditation of Laboratory Animal Care International (AAALAC, #434), and are managed in accordance with the Guide for the Care and Use of Laboratory Animals (“The Guide”), the Animal Welfare Regulations Title 9 Code of Federal Regulations Subchapter A, “Animal Welfare”, Parts 1-3 (AWR), the Public Health Service Policy on Humane Care and Use of Laboratory Animals (PHS Policy), and by the USF Institutional Animal Care and Use Committee's Principles and Procedures of Animal Care and Use (IACUC Principles). The experiments and protocols detailed in this study received institutional approval by the Moffitt IACUC (RIS00001625). Four-to-six-week-old female C3H/HeN and male C57BL6 mice were purchased from Charles Rivers Laboratories for the indicated experiments. Four-to-six-week-old male NSG mice from the Lau laboratory breeding colony were used for the indicated experiments. […] Mouse tumor volumes were measured using length, width and depth divided by 2. […]

For `C[C@H](O)[C@@H](O)[C@@H](O)[C@H](O)C=O` [L-fucose], which “T cell proliferation with pretreated splenic MDSCs” value [1] is on record?
Its value is “increased”.

What about the “T cell proliferation with pretreated splenic MDSCs” value ([1]; listed as L-fuc) of the same compound?
Its value is “decreases splenic MDSC immunosuppression”.

What about the “IFNγ release / production by T cells with modulated MDSCs” value [1] of the same compound?
Its value is “increased”.

And the “IFNγ release / production by T cells with modulated MDSCs” value ([1]; listed as L-fuc)?
Its value is “significantly stimulated; also recorded: decreases splenic MDSC immunosuppression”.

What about the “reduction of tumor growth” value (SW1 tumors; CD4+T cell depletion) of the same compound?
Its value is “completely abrogated”.

What about the “L-fuc-induced increases in total itICs (incl. NK, DC, CD8+T cells)” value (SW1 tumors; CD4+T cell-depletion) of the same compound?
The value was “blocked”.

What about the “reduction of tumor growth” value (SW1 tumors; CD8+T cell-depleted mice) of the same compound?
Its value is > 50%.

What about the “reduction of tumor growth” value (SW1 tumors; control (PBS-injected) mice) of the same compound?
The value was > 50%.

Source: patent publication US20240197761A1, “FUCOSYLATION AND IMMUNE MODULATION IN CANCER” (H. LEE MOFFITT CANCER CENTER AND RESEARCH INSTITUTE, INC., priority 2021, published 2024)
